PubChem BioAssay AID2060504 (Molecular Pharmacology Branch, DTP, NCI, 2025)

Tested on: 636577-100-R-J1-PDC complex spheroid viability
Assay: Anticancer human tumor 636577-100-R-J1-PDC patient-derived endometrial adenocarcinoma cell line growth inhibition [GQUAD]
Conditions: for IC50: curve of first compound; for viability, T/C: stronger effect = lower value
Outline: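 Viability of tumor cells grown as complex spheroids with endothelial and stromal cells, exposed to drug combinations. Top concentration at or near clinical Cmax (else 10 microM), diluted in half-log increments.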

[1] = second compound 0.0316 µM, first compound 0.0316 µM
[2] = second compound 0.0316 µM, first compound 0.316 µM
[3] = second compound 0.1 µM, first compound 0.0316 µM
[4] = second compound 0.1 µM, first compound 0.316 µM
[5] = second compound 0.316 µM, first compound 0.0316 µM
[6] = second compound 0.316 µM, first compound 0.316 µM
[7] = second compound 1 µM, first compound 0.0316 µM
[8] = second compound 1 µM, first compound 0.316 µM
[9] = second compound 3.16 µM, first compound 0.0316 µM
[10] = second compound 3.16 µM, first compound 0.316 µM
[11] = second compound 10 µM, first compound 0.0316 µM
[12] = second compound 10 µM, first compound 0.316 µM
[13] = second compound 0.0316 µM, first compound 0.1 µM
[14] = second compound 0.0316 µM, first compound 1 µM
[15] = second compound 0.0316 µM, first compound 3.16 µM
[16] = second compound 0.0316 µM, first compound 10 µM
[17] = second compound 0.1 µM, first compound 0.1 µM
[18] = second compound 0.1 µM, first compound 1 µM
[19] = second compound 0.1 µM, first compound 3.16 µM
[20] = second compound 0.1 µM, first compound 10 µM
[21] = second compound 0.316 µM, first compound 0.1 µM
[22] = second compound 0.316 µM, first compound 1 µM
[23] = second compound 0.316 µM, first compound 3.16 µM
[24] = second compound 0.316 µM, first compound 10 µM
[25] = second compound 1 µM, first compound 0.1 µM
[26] = second compound 1 µM, first compound 1 µM
[27] = second compound 1 µM, first compound 3.16 µM
[28] = second compound 1 µM, first compound 10 µM
[29] = second compound 3.16 µM, first compound 0.1 µM
[30] = second compound 3.16 µM, first compound 1 µM
[31] = second compound 3.16 µM, first compound 3.16 µM
[32] = second compound 3.16 µM, first compound 10 µM
[33] = second compound 10 µM, first compound 0.1 µM
[34] = second compound 10 µM, first compound 1 µM
[35] = second compound 10 µM, first compound 3.16 µM
[36] = second compound 10 µM, first compound 10 µM
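Further: viability read after seven days of drug exposure.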
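Wherever viability, T/C is given: luminescence signal used as a proxy for viable cells; 100% = DMSO vehicle control wells.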

Structure (SMILES): Cc1[nH]c2ccccc2c1CCNCc1ccc(/C=C/C(=O)NO)cc1 + Cc1[nH]c2ccc(F)cc2c1-c1nc2c3cccnc3c3ncccc3c2[nH]1
- IC50 (second compound 0.0316 µM): 3.82 nM
- IC50 (second compound 0.1 µM): 4.27 nM
- IC50 (second compound 0.316 µM): 2.57 nM
- IC50 (second compound 1 µM): 4.08 nM
- IC50 (second compound 3.16 µM): < 0.999 nM
- IC50 (second compound 10 µM): < 0.999 nM
- viability, T/C (second compound 0.0316 µM, first compound 0.000999 µM): 85.4%
- viability, T/C (second compound 0.0316 µM, first compound 0.00316 µM): 50.4%
- viability, T/C (second compound 0.0316 µM, first compound 0.00999 µM): 37.9%
- viability, T/C [1]: 17.2%
- viability, T/C (second compound 0.0316 µM, first compound 0.0999 µM): 8.47%
- viability, T/C [2]: 10.2%
- viability, T/C (second compound 0.1 µM, first compound 0.000999 µM): 76.9%
- viability, T/C (second compound 0.1 µM, first compound 0.00316 µM): 50.8%
- viability, T/C (second compound 0.1 µM, first compound 0.00999 µM): 41.8%
- viability, T/C [3]: 14.9%
- viability, T/C (second compound 0.1 µM, first compound 0.0999 µM): 7.94%
- viability, T/C [4]: 12.1%
- viability, T/C (second compound 0.316 µM, first compound 0.000999 µM): 80.3%
- viability, T/C (second compound 0.316 µM, first compound 0.00316 µM): 37.7%
- viability, T/C (second compound 0.316 µM, first compound 0.00999 µM): 32.9%
- viability, T/C [5]: 16.5%
- viability, T/C (second compound 0.316 µM, first compound 0.0999 µM): 7.47%
- viability, T/C [6]: 10.4%
- viability, T/C (second compound 1 µM, first compound 0.000999 µM): 51.6%
- viability, T/C (second compound 1 µM, first compound 0.00316 µM): 59.6%
- viability, T/C (second compound 1 µM, first compound 0.00999 µM): 30.3%
- viability, T/C [7]: 15.5%
- viability, T/C (second compound 1 µM, first compound 0.0999 µM): 9.36%
- viability, T/C [8]: 8.79%
- viability, T/C (second compound 3.16 µM, first compound 0.000999 µM): 23.2%
- viability, T/C (second compound 3.16 µM, first compound 0.00316 µM): 27.4%
- viability, T/C (second compound 3.16 µM, first compound 0.00999 µM): 23.9%
- viability, T/C [9]: 17.2%
- viability, T/C (second compound 3.16 µM, first compound 0.0999 µM): 9.73%
- viability, T/C [10]: 7.69%
- viability, T/C (second compound 10 µM, first compound 0.000999 µM): 32.9%
- viability, T/C (second compound 10 µM, first compound 0.00316 µM): 34%
- viability, T/C (second compound 10 µM, first compound 0.00999 µM): 23.1%
- viability, T/C [11]: 13.5%
- viability, T/C (second compound 10 µM, first compound 0.0999 µM): 9.1%
- viability, T/C [12]: 10.7%

Structure (SMILES): C#Cc1c(F)ccc2cc(O)cc(-c3ncc4c(N5CC6CCC(C5)N6)nc(OCC56CCCN5CC(F)C6)nc4c3F)c12 (stereo unspecified) + CN(C)c1ccc(Nc2c3ccc(NC(=O)CCN4CCCC4)cc3nc3cc(NC(=O)CCN4CCCC4)ccc23)cc1
- IC50 (second compound 0.0316 µM): 6070 nM
- IC50 (second compound 0.1 µM): 3230 nM
- IC50 (second compound 0.316 µM): 3860 nM
- IC50 (second compound 1 µM): 2430 nM
- IC50 (second compound 3.16 µM): < 31.6 nM
- IC50 (second compound 10 µM): < 31.6 nM
- viability, T/C [1]: 109%
- viability, T/C [13]: 84.1%
- viability, T/C [2]: 95.4%
- viability, T/C [14]: 69.9%
- viability, T/C [15]: 72.2%
- viability, T/C [16]: 37.2%
- viability, T/C [3]: 98.6%
- viability, T/C [17]: 94.3%
- viability, T/C [4]: 85.6%
- viability, T/C [18]: 68%
- viability, T/C [19]: 49.4%
- viability, T/C [20]: 42.5%
- viability, T/C [5]: 93%
- viability, T/C [21]: 99.3%
- viability, T/C [6]: 85.7%
- viability, T/C [22]: 62.1%
- viability, T/C [23]: 59.1%
- viability, T/C [24]: 34.9%
- viability, T/C [7]: 61%
- viability, T/C [25]: 75.2%
- viability, T/C [8]: 70.5%
- viability, T/C [26]: 61.8%
- viability, T/C [27]: 46.5%
- viability, T/C [28]: 29.8%
- viability, T/C [9]: 41.7%
- viability, T/C [29]: 37.2%
- viability, T/C [10]: 38%
- viability, T/C [30]: 36.4%
- viability, T/C [31]: 22.7%
- viability, T/C [32]: 15.7%
- viability, T/C [11]: 5.81%
- viability, T/C [33]: 4.81%
- viability, T/C [12]: 4.89%
- viability, T/C [34]: 3.78%
- viability, T/C [35]: 3.21%
- viability, T/C [36]: 0.66%

Structure (SMILES): COc1ccc([C@@H](O)c2cc(-c3ncnc4cc(N5CCOCC5)ccc34)c(F)cc2Cl)nn1 + Cc1[nH]c2ccc(F)cc2c1-c1nc2c3cccnc3c3ncccc3c2[nH]1
- IC50 (second compound 0.0316 µM): 670 nM
- IC50 (second compound 0.1 µM): 586 nM
- IC50 (second compound 0.316 µM): 682 nM
- IC50 (second compound 1 µM): 1080 nM
- IC50 (second compound 3.16 µM): < 31.6 nM
- IC50 (second compound 10 µM): 858 nM
- viability, T/C [1]: 59.3%
- viability, T/C [13]: 79.9%
- viability, T/C [2]: 103%
- viability, T/C [14]: 26.9%
- viability, T/C [15]: 47.1%
- viability, T/C [16]: 26.8%
- viability, T/C [3]: 44.1%
- viability, T/C [17]: 105%
- viability, T/C [4]: 63.6%
- viability, T/C [18]: 31.3%
- viability, T/C [19]: 54.6%
- viability, T/C [20]: 28.8%
- viability, T/C [5]: 72.8%
- viability, T/C [21]: 105%
- viability, T/C [6]: 66%
- viability, T/C [22]: 47.4%
- viability, T/C [23]: 48.6%
- viability, T/C [24]: 30.1%
- viability, T/C [7]: 71%
- viability, T/C [25]: 63.6%
- viability, T/C [8]: 60.5%
- viability, T/C [26]: 53.6%
- viability, T/C [27]: 35%
- viability, T/C [28]: 24.8%
- viability, T/C [9]: 40%
- viability, T/C [29]: 38.4%
- viability, T/C [10]: 43.3%
- viability, T/C [30]: 33.5%
- viability, T/C [31]: 20.1%
- viability, T/C [32]: 16%
- viability, T/C [11]: 70.2%
- viability, T/C [33]: 62.5%
- viability, T/C [12]: 64.2%
- viability, T/C [34]: 44.8%
- viability, T/C [35]: 36.7%
- viability, T/C [36]: 22.3%
